Results as given in patent US20020082273A1, “Agents for use in the treatment of alzheimer's disease” (priority 1998, published 2002).
Marks after values point to notes of the source that are not given here.

How the values were obtained:
[1] = tested on: Aβ; assay: Effect of agents on Cu^2+-induced SDS-resistant Aβ polymerization; format: biochemical, human
Protocol: Cu^2+-induced SDS-resistant oligomerization of Aβ: Aβ (2.5 μM), 150 mM NaCl, 20 mM hepes (pH 6.6, 7.4, 9) with or without ZnCl2 or CuCl2. Following incubation (37° C.), aliquots of each reaction (2 ng peptide) were collected at 0 d, 1 d, 3 d and 5 d and western blotted using anti-Aβ monoclonal antibody 8E10 (FIG. 9). Migration of the molecular size markers are indicated (kDa). […] Cu^2+ (2-30 μM) induced SDS-resistant polymerization of peptide. […] It should be noted that other means of visualizing and/or determining the presence or absence of polymerization other than western blot analysis may be used. Such other means include but are not limited to density sedimentation by centrifugation of the samples.
It is possible that the decreased polymerization may be due to chelation of Cu^2+ by BC, however given the low binding affinity of BC for Cu^2+ compared with Aβ, it seems likely that the chelation of Cu^+ by BC prevents it from inducing SDS-resistant Ad polymerization. Therefore, Aβ may undergo a hydroxyl radical modification that promotes its assembly into SDS-resistant polymers.

[2] = cited from earlier work
[3] = Table 1; K=[ML]/[M][L]; cited from earlier work
[4] = Residual metals in post-centrifugation pellets of brain homogenates (ICP-AES); format: biochemical, human; set-up: Residual Metal Levels, Mg: unit not given here; settings: for Residual Al in extracted pellet / Residual Ca in extracted pellet / Residual Cu in extracted pellet / Residual Fe in extracted pellet / Residual Mg in extracted pellet / Residual Zn in extracted pellet: Table 6
[5] = cited from earlier work; remark: listed apart in the source
[6] = tested on: Aβ deposits of AD-affected brain; assay: Extraction (solubilization) of Aβ from post-mortem AD brain tissue homogenates, western blot densitometry; format: biochemical, human; settings: for Effect of Chelators upon extraction of Aβ (% change from control): mean n = 6 AD brain samples, above PBS extraction alone
Protocol: Identical regions of frontal cortex (0.5 g) from post-mortem brains of individuals with AD, as well as non-AD conditions, were homogenized in TBS, […] ±metal chelators.
0.5 g of prefrontal cortex was dissected and homogenized in PBS ±chelator as indicated. The homogenate was then centrifuged (100,000 g) and the supernatant removed, and a sample taken for western blot assay using anti-Aβ specific antibodies after Tricine PAGE. Densitometry was performed against synthetic peptide standards.
Densitometry of Aβ western blots (FIGS. 19A-19C) was performed for a series of 6 AD brain samples homogenized in the presence of chelators as indicated.
Next the ability of clioquinol to extract Aβ deposits from human brain was examined. […] Fragments of prefrontal cortex from individual post-mortem samples with the histopathological diagnosis of AD were homogenized in PBS, pH 7.4, and then pelleted after centrifugation. The pellets were then washed with agitation twice for 30 minutes, 4° C., with PBS or PBS containing clioquinol (100% =0.8 μM clioquinol). The suspension was then pelleted (10,000 g for 30 minutes) and the supernatant removed (S1) for western blot analysis using Aβ-specific antibodies (illustrated). The pellet was treated a second time in this experiment with agitation and centrifugation, and the second supernatant (S2) analysed.
Soluble Aβ (ng/g tissue) was determined as described. Total Aβ was determined following formic acid extraction of otherwise untreated tissue.
(§1) Suitable quantities of gray matter from each subject were minced to serve as pools of homogenous tissue. […] To obtain the soluble fraction, the homogenates were centrifuged at 100,000× g for 30 min (Beckman J180, Beckman instruments, Fullerton, California) and the supernatant collected in 1 ml aliquots and stored on ice or immediately frozen at −70° C. In each experiment, all protein was precipitated from 1 ml of supernatant from each treatment group using 1:5 ice cold 10% trichloracetic acid and pelleted in a bench top microfuge (Heraeus, Osteroder, Germany) at 10,000× g. The remaining pellet was frozen at −70° C.
Precipitated protein was subjected to SDS polyacrylamide gel electrophoresis (SDS-PAGE) on Novex pre-cast 10-20% Tris-Tricine gels followed by Western transfer onto 0.2 μm nitrocellulose membrane (Biorad, Hercules, Calif.). […] Each gel included two or more lanes containing known quantities of synthetic Aβ which served as internal reference standards. Blot images were captured by a Relisys scanner with transparency adapter (Teco Information Systems, Taiwan, ROC) and densitometry conducted using the NIH Image 1.6 program (National Institutes for Health, USA. Modified for PC by Scion Corporation, Frederick, Md.), calibrated using a step diffusion chart. For quantitation of Aβ in brain extracts, the internal reference standards of synthetic Aβ were utilized to produce standard curves from which values were interpolated.

[7] = Table 1; K=[ML]/[M][L]; cited from earlier work; remark: listed apart in the source
[8] = Table 1; K=[ML]/[M][L]; cited from earlier work; remark: listed apart in the source
[9] = tested on: Aβ deposits of age-matched control brain; assay: Extraction of Aβ from age-matched non-AD control brain tissue; format: biochemical, human; settings: chelator 2 mM
Protocol: as §1
Precipitated protein was subjected to SDS polyacrylamide gel electrophoresis (SDS-PAGE) on Novex pre-cast 10-20% Tris-Tricine gels followed by Western transfer onto 0.2 μm nitrocellulose membrane (Biorad, Hercules, Calif.). Aβ was detected using the WO2, G210 or G211 monoclonal antibodies (Ida, N., et al., J. Biol. Chem., 271:22908 (1996)) in combination with HRP-conjugated rabbit anti-mouse IgG (Dako, Denmark), and visualized using chemiluminescence (ECL, Amersham Life Science, Little Chalfont, Buckinghamshire, UK). Each gel included two or more lanes containing known quantities of synthetic Aβ which served as internal reference standards. Blot images were captured by a Relisys scanner with transparency adapter (Teco Information Systems, Taiwan, ROC) and densitometry conducted using the NIH Image 1.6 program (National Institutes for Health, USA. Modified for PC by Scion Corporation, Frederick, Md.), calibrated using a step diffusion chart. For quantitation of Aβ in brain extracts, the internal reference standards of synthetic Aβ were utilized to produce standard curves from which values were interpolated.

[10] = cited from earlier work; remark: listed apart in the source
[11] = cited from earlier work; remark: listed apart in the source
[12] = Table 3, TPEN 0.1 mM, AD (n=6) and healthy controls (n=4)
[13] = Table 7, 10 AD specimens, 0.1 mM TPEN

## O=S([O-])S(=O)(=O)[O-].[Na+].[Na+] [sodium metabisulfite]
[1]
  effect on Cu^2+-induced SDS-resistant Aβ polymerization: moderately attenuates

## c1ccc(CN(CCN(Cc2ccccn2)Cc2ccccn2)Cc2ccccn2)nc1 [TPEN, N,N,N′,N′-tetrakis [2-pyridyl-methyl] ethylenediamine]
[2]; Table 1, K=[ML]/[M][L]
  LogK, Ca: 3.0
[2]; Table 5, NIST database
  Stability constant logK10, Ca: 3
[3]
  LogK, Mg: 0
[4]; [12]
  Residual Al in pellet: 65 mg/kg
  Residual Ca in pellet: (210) mg/kg
  Residual Cu in pellet: 9.8 mg/kg
  Residual Fe in pellet: 239 mg/kg
  Residual Mg in pellet: 230 mg/kg
  Residual Zn in pellet: 33.2* mg/kg
[4]; chelator 0.001 mM
  Residual Al in extracted pellet: 34 mg/kg
  Residual Ca in extracted pellet: 490 mg/kg
  Residual Cu in extracted pellet: 12 mg/kg
  Residual Fe in extracted pellet: 512 mg/kg
  Residual Mg in extracted pellet: 192 mg/kg
  Residual Zn in extracted pellet: 42 mg/kg
[4]; chelator 0.004 mM
  Residual Al in extracted pellet: 22 mg/kg
  Residual Ca in extracted pellet: 322 mg/kg
  Residual Cu in extracted pellet: 10 mg/kg
  Residual Fe in extracted pellet: 317 mg/kg
  Residual Mg in extracted pellet: 147 mg/kg
  Residual Zn in extracted pellet: 28 mg/kg
[4]; chelator 0.04 mM
  Residual Al in extracted pellet: 22 mg/kg
  Residual Ca in extracted pellet: 956 mg/kg
  Residual Cu in extracted pellet: 10 mg/kg
  Residual Fe in extracted pellet: 322 mg/kg
  Residual Mg in extracted pellet: 201 mg/kg
  Residual Zn in extracted pellet: 22 mg/kg
[4]; chelator 0.1 mM
  Residual Al in extracted pellet: 60 mg/kg
  Residual Ca in extracted pellet: 708 mg/kg
  Residual Cu in extracted pellet: 12 mg/kg
  Residual Fe in extracted pellet: 389 mg/kg
  Residual Mg in extracted pellet: 200 mg/kg
  Residual Zn in extracted pellet: 21 mg/kg
[4]; chelator 2.0 mM
  Residual Al in extracted pellet: 148 mg/kg
  Residual Ca in extracted pellet: 419 mg/kg
  Residual Cu in extracted pellet: 11 mg/kg
  Residual Fe in extracted pellet: 376 mg/kg
  Residual Mg in extracted pellet: 200 mg/kg
  Residual Zn in extracted pellet: 19 mg/kg
[4]; chelator 5.0 mM
  Residual Al in extracted pellet: 16 mg/kg
  Residual Ca in extracted pellet: 377 mg/kg
  Residual Cu in extracted pellet: 10 mg/kg
  Residual Fe in extracted pellet: 307 mg/kg
  Residual Mg in extracted pellet: 205 mg/kg
  Residual Zn in extracted pellet: 17 mg/kg
[4]; [13]
  Residual Metal Levels, Al: 65
  Residual Metal Levels, Ca: 210
  Residual Metal Levels, Cu: 9.8
  Residual Metal Levels, Fe: 239
  Residual Metal Levels, Mg: 230
  Residual Metal Levels, Zn: 33.2
[5]; Table 1, K=[ML]/[M][L]
  LogK, Cu: 20.2
[5]; Table 5, NIST database
  Stability constant logK10, Cu: 20.2
[6]; 0.1 mM chelator
  Effect of Chelators upon extraction of Aβ (% change from control): 182%
[6]; 2.0 mM chelator
  Effect of Chelators upon extraction of Aβ (% change from control): 241%
[6]; 6 AD brains, 0.1 or 2.0 mM
  mean increase of Aβ solubilization over PBS alone: around 2 fold
[6]; AD subject 1, chelator 2 mM
  Extractable Aβ: 0.21 µg/g
  Extractable Aβ (% of total): (0.2) %
[6]; AD subject 2, chelator 2 mM
  Extractable Aβ: 3.40 µg/g
  Extractable Aβ (% of total): (4.4) %
[6]; AD subject 3, chelator 2 mM
  Extractable Aβ: 1.80 µg/g
  Extractable Aβ (% of total): (2.25) %
[6]; AD subject 4, chelator 2 mM
  Extractable Aβ: 5.50 µg/g
  Extractable Aβ (% of total): (9.2) %
[6]; AD subject 5, chelator 2 mM
  Extractable Aβ: 5.00 µg/g
  Extractable Aβ (% of total): (3.5) %
[6]; AD subject 6, chelator 2 mM
  Extractable Aβ: 0.28 µg/g
  Extractable Aβ (% of total): (1.75) %
[6]; AD subjects 1-6, chelator 2 mM
  Extractable Aβ (% of total), X (mean): (4.6) %
  Extractable Aβ, X (mean): 2.73 µg/g
[6]; AD tissue, chelator 2 mM
  X C/PBS (mean chelator / PBS): 2.60
[6]; neutral saline buffer, TPEN 5 μM
  efficiency in extracting Aβ: highly efficient
[7]
  LogK, Co: 0
[8]
  LogK, Al: 0
[9]; AC subject 1
  Extractable Aβ: 0.22 µg/g
  Extractable Aβ (% of total): (32.0) %
[9]; AC subject 2
  Extractable Aβ: 0.38 µg/g
  Extractable Aβ (% of total): (9.0) %
[9]; AC subject 3
  Extractable Aβ: 0.26 µg/g
  Extractable Aβ (% of total): (9.7) %
[9]; AC subject 4
  Extractable Aβ: 0.09 µg/g
  Extractable Aβ (% of total): (3.0) %
[9]; AC subject 5
  Extractable Aβ: 1.06 µg/g
  Extractable Aβ (% of total): (29.5) %
[9]; AC subjects 1-5
  Extractable Aβ (% of total), X (mean): (16.7) %
  Extractable Aβ, X (mean): 0.40 µg/g
[9]; age-matched control tissue
  X C/PBS (mean chelator / PBS): 1.6
[10]; Table 1, K=[ML]/[M][L]
  LogK, Zn: 15.4
[10]; Table 5, NIST database
  Stability constant logK10, Zn: 15.4
[11]; Table 1, K=[ML]/[M][L]
  LogK, Fe: 14.4
[11]; Table 5, NIST database
  Stability constant logK10, Fe: 14.4

## Cl.O=C(O)CCP(CCC(=O)O)CCC(=O)O [TCEP, Tris(2-Carboxyethyl)-Phosphine Hydrochloride]
[1]
  effect on Cu^2+-induced SDS-resistant Aβ polymerization: significantly reduced the level of polymerization
